From ChEMBL document CHEMBL5465560, “Selectivity Literature for EUbOPEN Chemogenomic Library” (2024)

Assays:
[1] = biological target: Wee1-like protein kinase (Homo sapiens) (UniProt P30291); test: Selectivity interaction (Kinase panel (KiNativ target engagement assay in Jurkat cells)) EUB0001635a WEE1; assay type: cell-based; details: at 1 µM
[2] = biological target: Ribosomal protein S6 kinase alpha-6 (Homo sapiens, UniProt Q9UK32); test: Selectivity interaction (KinomeScan (DiscoverX)) EUB0000595a RPS6KA6; details: at 10 µM
[3] = biological target: RAC-alpha serine/threonine-protein kinase (Homo sapiens, UniProt P31749); test: Selectivity interaction (Kinase screening (Nanosyn)) EUB0000604a AKT1
[4] = biological target: T1, Serine/threonine-protein kinase DCLK2 (Homo sapiens) (UniProt Q8N568); test: Selectivity interaction (KinomeScan (DiscoverX)) EUB0001049a DCLK2; details: at 1 µM
T1 sequence (whole entry): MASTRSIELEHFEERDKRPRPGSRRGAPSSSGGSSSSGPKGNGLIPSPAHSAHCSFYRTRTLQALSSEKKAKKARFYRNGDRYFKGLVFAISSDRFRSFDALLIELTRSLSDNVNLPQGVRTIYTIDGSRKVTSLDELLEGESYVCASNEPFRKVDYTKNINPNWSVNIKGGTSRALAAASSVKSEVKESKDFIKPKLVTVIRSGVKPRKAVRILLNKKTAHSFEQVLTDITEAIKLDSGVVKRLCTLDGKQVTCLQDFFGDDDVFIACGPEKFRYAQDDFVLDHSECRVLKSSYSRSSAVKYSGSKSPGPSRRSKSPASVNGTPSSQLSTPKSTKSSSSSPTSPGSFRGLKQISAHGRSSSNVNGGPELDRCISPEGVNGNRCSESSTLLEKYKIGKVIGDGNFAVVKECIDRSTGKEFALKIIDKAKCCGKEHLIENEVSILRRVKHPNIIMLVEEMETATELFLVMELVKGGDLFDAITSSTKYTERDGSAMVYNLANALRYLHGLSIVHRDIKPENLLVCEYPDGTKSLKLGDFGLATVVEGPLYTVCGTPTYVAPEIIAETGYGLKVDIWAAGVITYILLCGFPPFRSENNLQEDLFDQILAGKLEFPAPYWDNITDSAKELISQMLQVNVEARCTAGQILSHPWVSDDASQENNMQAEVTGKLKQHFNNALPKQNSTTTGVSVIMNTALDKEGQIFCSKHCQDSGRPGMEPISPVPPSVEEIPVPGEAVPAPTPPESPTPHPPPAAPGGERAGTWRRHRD

[5] = biological target: Tyrosine-protein kinase SYK (Homo sapiens, UniProt P43405); test: Selectivity interaction (KinomeScan (DiscoverX)) EUB0000607a SYK; details: at 10 µM
[6] = biological target: T2, Phosphatidylinositol 5-phosphate 4-kinase type-2 gamma (Homo sapiens) (UniProt Q8TBX8); test: Selectivity interaction (KinomeScan (DiscoverX)) EUB0000618a PIP4K2C; details: at 10 µM
T2 sequence (whole entry): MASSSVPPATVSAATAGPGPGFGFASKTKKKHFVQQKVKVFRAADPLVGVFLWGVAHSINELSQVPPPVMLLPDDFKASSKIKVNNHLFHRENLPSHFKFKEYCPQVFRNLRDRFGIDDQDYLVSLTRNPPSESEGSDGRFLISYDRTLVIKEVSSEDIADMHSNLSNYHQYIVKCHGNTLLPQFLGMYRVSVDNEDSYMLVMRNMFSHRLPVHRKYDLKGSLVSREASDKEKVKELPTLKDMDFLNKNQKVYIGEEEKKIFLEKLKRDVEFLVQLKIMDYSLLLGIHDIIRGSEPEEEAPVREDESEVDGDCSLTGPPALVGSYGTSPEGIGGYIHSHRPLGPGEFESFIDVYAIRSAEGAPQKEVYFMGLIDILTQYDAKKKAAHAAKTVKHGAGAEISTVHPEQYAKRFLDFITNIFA

[7] = biological target: Cell division control protein 42 homolog (Homo sapiens) (UniProt P60953); test: Selectivity interaction (Kinase panel (Invitrogen)) EUB0000639a CDC42; details: at 200 nM
[8] = biological target: Dual specificity mitogen-activated protein kinase kinase 1 (Homo sapiens, UniProt Q02750); test: Selectivity interaction (ActivX KiNativ screen (kinase selectivity in THP-1 cell lysates)) EUB0000639a MAP2K1; assay type: subcellular; details: lysate, at 1 µM
[9] = biological target: Receptor tyrosine-protein kinase erbB-2 (Homo sapiens, UniProt P04626); details: at 10 µM
[10] = biological target: T3, Tyrosine-protein kinase Mer (Homo sapiens) (UniProt Q12866); details: at 10 µM
T3 sequence (whole entry): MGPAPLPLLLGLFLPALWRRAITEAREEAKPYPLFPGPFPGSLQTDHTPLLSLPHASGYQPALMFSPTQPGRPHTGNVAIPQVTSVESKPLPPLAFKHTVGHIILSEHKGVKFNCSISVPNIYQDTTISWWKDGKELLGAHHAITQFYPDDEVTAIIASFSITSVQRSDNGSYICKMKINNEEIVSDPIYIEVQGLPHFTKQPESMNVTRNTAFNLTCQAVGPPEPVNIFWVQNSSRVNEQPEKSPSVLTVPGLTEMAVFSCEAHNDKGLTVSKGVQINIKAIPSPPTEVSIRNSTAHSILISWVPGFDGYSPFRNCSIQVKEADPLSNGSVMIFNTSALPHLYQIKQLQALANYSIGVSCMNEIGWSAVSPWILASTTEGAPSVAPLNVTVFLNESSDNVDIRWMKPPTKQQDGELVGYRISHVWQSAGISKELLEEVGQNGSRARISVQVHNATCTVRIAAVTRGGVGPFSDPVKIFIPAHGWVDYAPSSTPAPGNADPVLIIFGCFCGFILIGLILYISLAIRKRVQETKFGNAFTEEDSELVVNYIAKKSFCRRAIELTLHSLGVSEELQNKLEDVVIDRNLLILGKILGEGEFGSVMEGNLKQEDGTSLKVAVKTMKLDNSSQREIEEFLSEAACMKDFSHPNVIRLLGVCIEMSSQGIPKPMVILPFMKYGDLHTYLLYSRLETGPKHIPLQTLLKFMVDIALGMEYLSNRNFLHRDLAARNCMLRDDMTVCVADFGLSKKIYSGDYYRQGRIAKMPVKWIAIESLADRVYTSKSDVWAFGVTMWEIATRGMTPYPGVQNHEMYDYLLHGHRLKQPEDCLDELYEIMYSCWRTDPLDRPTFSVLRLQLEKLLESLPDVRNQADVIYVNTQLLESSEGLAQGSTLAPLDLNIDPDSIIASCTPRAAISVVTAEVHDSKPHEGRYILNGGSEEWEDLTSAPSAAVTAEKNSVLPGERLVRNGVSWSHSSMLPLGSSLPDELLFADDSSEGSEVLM

[11] = biological target: LIM domain kinase 1 (Homo sapiens) (UniProt P53667); test: Selectivity interaction (KinomeScan (DiscoverX)) EUB0000092b LIMK1; details: at 10 µM
[12] = biological target: Activin receptor type-2A (Homo sapiens) (UniProt P27037); test: Selectivity interaction (Ambit KINOMEscan and KiNATiv profiling in Jurkat cells) EUB0000090b ACVR2A; assay type: cell-based; details: at 1 µM
[13] = biological target: Ribosomal protein S6 kinase alpha-4 (Homo sapiens) (UniProt O75676); test: Selectivity interaction (Ambit KINOMEscan and KiNATiv profiling in Jurkat cells) EUB0000090b RPS6KA4; assay type: cell-based; details: at 1 µM

Sequence of Receptor tyrosine-protein kinase erbB-2 (P04626 whole entry): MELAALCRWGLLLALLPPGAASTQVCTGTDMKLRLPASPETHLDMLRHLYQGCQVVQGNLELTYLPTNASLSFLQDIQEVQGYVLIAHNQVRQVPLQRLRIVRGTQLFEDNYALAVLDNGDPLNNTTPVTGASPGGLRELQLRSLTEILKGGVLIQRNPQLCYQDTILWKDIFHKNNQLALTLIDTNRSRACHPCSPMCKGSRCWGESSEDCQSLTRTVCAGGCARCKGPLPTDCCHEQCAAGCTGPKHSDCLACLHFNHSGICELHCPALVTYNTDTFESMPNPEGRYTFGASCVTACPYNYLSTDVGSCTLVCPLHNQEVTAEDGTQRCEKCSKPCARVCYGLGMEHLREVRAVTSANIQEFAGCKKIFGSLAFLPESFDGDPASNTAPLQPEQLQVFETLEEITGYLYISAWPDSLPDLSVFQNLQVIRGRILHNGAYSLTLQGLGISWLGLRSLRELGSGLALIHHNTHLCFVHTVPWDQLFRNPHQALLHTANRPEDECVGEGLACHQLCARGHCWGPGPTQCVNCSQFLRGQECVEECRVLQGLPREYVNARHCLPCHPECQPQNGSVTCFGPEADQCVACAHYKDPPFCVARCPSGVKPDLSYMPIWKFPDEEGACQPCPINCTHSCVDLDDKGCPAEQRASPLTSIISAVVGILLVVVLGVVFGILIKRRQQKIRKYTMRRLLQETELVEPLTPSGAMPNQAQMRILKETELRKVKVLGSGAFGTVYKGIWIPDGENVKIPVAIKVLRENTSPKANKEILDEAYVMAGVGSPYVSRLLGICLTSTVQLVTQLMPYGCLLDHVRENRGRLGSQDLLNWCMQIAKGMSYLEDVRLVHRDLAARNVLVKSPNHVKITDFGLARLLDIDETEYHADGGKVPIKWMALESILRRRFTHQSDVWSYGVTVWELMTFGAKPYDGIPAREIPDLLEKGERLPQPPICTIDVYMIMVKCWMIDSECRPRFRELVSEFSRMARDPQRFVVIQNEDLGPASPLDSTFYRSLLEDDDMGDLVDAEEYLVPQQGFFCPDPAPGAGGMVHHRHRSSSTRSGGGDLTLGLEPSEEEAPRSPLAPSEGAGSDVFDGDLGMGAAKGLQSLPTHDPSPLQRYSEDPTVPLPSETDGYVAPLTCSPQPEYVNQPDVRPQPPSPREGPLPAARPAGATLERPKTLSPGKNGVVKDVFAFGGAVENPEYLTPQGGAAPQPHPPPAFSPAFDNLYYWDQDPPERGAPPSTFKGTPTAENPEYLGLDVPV
Sequence of LIM domain kinase 1 (Homo sapiens) (P53667 whole entry, looked up, the tested form may be a part): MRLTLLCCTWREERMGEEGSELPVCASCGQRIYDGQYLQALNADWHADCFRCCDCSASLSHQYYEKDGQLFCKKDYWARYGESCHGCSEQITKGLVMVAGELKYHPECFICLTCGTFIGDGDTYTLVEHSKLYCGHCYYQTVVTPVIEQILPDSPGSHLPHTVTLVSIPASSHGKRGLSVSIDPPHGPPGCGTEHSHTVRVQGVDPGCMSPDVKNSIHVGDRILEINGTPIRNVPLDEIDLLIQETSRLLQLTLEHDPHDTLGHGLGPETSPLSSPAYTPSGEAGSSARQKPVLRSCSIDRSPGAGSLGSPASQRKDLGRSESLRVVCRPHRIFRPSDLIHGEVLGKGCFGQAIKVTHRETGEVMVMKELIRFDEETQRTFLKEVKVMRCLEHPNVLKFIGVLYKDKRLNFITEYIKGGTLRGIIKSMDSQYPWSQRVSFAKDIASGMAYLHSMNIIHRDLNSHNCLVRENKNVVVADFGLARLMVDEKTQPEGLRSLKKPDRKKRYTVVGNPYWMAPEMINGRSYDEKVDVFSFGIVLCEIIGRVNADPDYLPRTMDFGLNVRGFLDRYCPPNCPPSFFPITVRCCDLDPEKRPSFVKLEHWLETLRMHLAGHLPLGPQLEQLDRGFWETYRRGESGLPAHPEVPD
Sequence of RAC-alpha serine/threonine-protein kinase (P31749 whole entry): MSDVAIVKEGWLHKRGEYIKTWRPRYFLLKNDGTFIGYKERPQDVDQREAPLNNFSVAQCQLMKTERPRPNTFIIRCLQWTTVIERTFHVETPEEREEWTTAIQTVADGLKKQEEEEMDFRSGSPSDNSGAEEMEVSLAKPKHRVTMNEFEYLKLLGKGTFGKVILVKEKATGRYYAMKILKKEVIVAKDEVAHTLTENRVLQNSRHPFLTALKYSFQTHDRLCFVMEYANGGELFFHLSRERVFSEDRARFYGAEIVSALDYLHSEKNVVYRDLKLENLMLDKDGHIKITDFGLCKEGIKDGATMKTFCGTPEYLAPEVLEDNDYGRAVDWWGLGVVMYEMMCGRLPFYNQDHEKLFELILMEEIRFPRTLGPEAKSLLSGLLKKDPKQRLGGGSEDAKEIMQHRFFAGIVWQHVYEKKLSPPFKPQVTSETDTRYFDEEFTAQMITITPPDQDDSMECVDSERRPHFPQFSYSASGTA
Sequence of Ribosomal protein S6 kinase alpha-6 (Q9UK32 whole entry): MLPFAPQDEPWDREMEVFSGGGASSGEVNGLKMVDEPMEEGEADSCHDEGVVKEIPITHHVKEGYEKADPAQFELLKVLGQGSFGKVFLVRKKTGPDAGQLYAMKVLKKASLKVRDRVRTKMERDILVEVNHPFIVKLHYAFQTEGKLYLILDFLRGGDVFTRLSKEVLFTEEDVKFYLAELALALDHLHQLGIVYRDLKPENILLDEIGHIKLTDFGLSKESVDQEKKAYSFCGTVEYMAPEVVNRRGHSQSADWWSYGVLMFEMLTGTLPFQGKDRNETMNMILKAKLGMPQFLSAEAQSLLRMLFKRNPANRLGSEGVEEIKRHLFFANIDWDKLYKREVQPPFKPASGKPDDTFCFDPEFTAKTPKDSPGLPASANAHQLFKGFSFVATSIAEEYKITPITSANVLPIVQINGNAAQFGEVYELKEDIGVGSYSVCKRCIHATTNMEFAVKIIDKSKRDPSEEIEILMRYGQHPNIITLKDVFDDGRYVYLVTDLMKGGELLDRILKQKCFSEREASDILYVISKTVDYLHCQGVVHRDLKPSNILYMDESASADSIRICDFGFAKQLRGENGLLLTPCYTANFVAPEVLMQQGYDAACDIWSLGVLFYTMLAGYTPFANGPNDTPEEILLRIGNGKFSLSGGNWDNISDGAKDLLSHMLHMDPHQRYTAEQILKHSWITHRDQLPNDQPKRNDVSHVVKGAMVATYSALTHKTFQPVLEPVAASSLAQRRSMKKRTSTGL
Sequence of Wee1-like protein kinase (Homo sapiens) (P30291 whole entry, looked up): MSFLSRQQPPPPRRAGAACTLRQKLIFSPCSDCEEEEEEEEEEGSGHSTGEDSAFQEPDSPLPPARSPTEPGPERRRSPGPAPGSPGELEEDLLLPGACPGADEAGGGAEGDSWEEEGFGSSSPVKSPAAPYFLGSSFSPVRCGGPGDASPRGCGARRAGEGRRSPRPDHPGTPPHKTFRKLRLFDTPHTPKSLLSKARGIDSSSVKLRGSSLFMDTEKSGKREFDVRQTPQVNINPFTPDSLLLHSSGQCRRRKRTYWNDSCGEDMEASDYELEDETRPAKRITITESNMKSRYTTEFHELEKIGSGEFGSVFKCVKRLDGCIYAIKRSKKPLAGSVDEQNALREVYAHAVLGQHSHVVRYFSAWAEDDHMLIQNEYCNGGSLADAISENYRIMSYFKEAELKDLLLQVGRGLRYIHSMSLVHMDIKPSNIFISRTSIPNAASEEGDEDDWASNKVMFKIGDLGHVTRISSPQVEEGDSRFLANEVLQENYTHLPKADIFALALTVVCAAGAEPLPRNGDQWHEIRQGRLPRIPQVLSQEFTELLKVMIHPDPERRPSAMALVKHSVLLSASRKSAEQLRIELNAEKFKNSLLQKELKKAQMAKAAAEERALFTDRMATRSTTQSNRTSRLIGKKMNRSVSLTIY
Sequence of Dual specificity mitogen-activated protein kinase kinase 1 (Q02750 whole entry): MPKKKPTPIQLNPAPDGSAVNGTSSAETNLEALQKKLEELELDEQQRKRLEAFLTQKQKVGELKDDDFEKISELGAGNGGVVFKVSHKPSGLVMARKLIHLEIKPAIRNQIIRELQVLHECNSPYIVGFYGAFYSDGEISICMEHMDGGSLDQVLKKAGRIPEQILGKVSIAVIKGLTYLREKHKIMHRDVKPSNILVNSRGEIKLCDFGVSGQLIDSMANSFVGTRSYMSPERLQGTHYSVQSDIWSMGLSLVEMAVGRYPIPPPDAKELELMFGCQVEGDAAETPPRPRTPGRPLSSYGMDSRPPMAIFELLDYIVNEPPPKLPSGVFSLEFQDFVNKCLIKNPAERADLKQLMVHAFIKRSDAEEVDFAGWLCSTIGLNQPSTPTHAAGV
Sequence of Cell division control protein 42 homolog (Homo sapiens) (P60953 whole entry, looked up): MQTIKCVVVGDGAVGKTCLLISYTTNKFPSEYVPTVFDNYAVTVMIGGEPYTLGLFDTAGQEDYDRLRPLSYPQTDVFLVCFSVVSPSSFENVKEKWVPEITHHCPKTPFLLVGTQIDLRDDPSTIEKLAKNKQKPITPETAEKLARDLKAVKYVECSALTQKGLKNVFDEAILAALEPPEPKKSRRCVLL
Sequence of Activin receptor type-2A (Homo sapiens) (P27037 whole entry): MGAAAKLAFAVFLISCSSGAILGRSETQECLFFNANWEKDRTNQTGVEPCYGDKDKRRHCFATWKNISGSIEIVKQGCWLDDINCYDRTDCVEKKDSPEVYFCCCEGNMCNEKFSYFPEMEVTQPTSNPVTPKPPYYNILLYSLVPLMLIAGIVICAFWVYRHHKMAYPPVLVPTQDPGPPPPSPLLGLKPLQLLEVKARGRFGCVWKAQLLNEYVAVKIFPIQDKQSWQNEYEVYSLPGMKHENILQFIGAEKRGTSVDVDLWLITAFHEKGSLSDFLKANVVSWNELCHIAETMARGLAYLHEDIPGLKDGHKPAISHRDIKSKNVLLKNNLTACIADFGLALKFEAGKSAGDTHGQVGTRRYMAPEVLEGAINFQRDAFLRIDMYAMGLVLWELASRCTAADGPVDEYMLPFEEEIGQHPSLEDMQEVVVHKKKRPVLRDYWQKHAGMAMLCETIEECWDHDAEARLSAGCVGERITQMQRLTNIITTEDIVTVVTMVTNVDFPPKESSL

C=CC(=O)Nc1ccc(C(=O)Nc2[nH]nc3c2CN(C(=O)N[C@H](CN(C)C)c2ccccc2)C3(C)C)cc1
% of engagement [1]: 24%

COCC(=O)NC/C=C/c1ccc2ncnc(Nc3ccc(Oc4ccc(C)nc4)c(C)c3)c2c1 [CP-724714]
% of control [2]: 96%

Cc1cnc(Nc2ccc(F)cc2Cl)nc1-c1c[nH]c(C(=O)N[C@H](CO)c2cccc(Cl)c2)c1
% of inhibition [3]: 0%

COc1cc(Nc2nc(C)cc(-c3cnn4nc(OC)ccc34)n2)cc(C(F)(F)F)c1
% of control [4]: 84%

CNC(=O)Nc1ccc(-c2nc(N3CC4CCC(C3)O4)c3cnn(C4CCC5(CC4)OCCO5)c3n2)cc1
% of control [5]: 100%

O[C@H]1CC[C@H](Nc2ncc3nc(Nc4c(F)cc(F)cc4F)n([C@H]4CCOC4)c3n2)CC1
% of control [6]: 32%

CC[C@@H]1[C@H](F)C(=O)N[C@@H]1COc1nccc2cc(C(N)=O)c(OC)cc12 [ZIMLOVISERTIB]
% of inhibition [7]: 10.2% | % of inhibition [8]: 0.2%

CCN(CC)CCCCNc1ncc2cc(-c3cc(OC)cc(OC)c3)c(NC(=O)NC(C)(C)C)nc2n1
% of control [9]: 100% | % of control [10]: 100%

CCC(=O)N1CCN(c2ccc(-n3c(=O)ccc4cnc5ccc(-c6cnc7ccccc7c6)cc5c43)cc2C(F)(F)F)CC1
% of control [11]: 15%

CN(C)C/C=C/C(=O)Nc1ccc(C(=O)N2CCCC(Nc3ncc(Cl)c(-c4c[nH]c5ccccc45)n3)C2)cc1 (stereo not drawn)
% of control [12]: 83% | % of control [13]: 100%
